This note sets out measurements from patent US10800791B2, “Triazole ACC inhibitors and uses thereof” (Gilead Apollo, LLC, priority 2015, dated 2020).

pIC50: −log10 of the molar value. Converted amounts (≈) assume the structure as drawn. Where two headings read alike, the source gives them in different places.

For assay [1], the system named is Rhizoctonia solani (Rs). As to the kind of experiment: Growth inhibition assay of fungal pathogens, Rs. In kind it is cell-based. To be noted: 48 h.
Assay [2] deals with Collectotrichum graminicola (Cg). Kind of assay: Growth inhibition assay of fungal pathogens, Cg. The format is cell-based. To be noted: 48 h, growth inhibition at 48 hours vs 2% DMSO control. In a few lines: (§1)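 Spores diluted in 17% V8 liquid media and incubated with compound at final 50, 10, 2 ppm or 2, 0.4, 0.08 ppm (2% DMSO). OD600 plus visual ratings at 24 and 48 hours, blank-subtracted; percent growth inhibition from 48 h readings relative to 2% DMSO control.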

Assay [3] deals with C. krusei. As to the kind of experiment: Antifungal Activity Assay (broth microtiter MIC), C. krusei. In kind it is cell-based, Candida krusei. As to conditions: Pichia kudriavzevii, ATCC6258, 48 h. In a few lines:
(§2)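 Broth microdilution per CLSI M27-A3 in RPMI 1640+MOPS, inoculum 2.5×10^3 CFU/mL final from overnight Sabouraud dextrose agar cultures at 35° C. Compounds diluted from DMSO stock to 128 μg/mL in water. MIC read visually versus growth control at 48 h.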

The subject of assay [4] is Phytophthora capsici (Pc). Kind of assay: Growth inhibition assay of fungal pathogens, Pc. In kind it is cell-based. As to conditions: 48 h. In a few lines: as §1
Assay [5] has as its system Diplodia maydis (Dm). Kind of assay: Growth inhibition assay of fungal pathogens, Dm. In kind it is cell-based. To be noted: Stenocarpella maydis, 48 h, growth inhibition at 48 hours vs 2% DMSO control. The gist of the method:
as §1

Assay [6] deals with Septoria tritici (St). Kind of assay: Growth inhibition assay of fungal pathogens, St. The format is cell-based. As to conditions: Zymoseptoria tritici, 48 h, growth inhibition at 48 hours vs 2% DMSO control. In a few lines:
as §1

Assay [7] deals with human (hACC2) (Homo sapiens, UniProt O00763). Kind of assay: In vitro ACC inhibition assay (ADP-Glo), hACC2. The format is biochemical. As to conditions: Table 2b, additional results, 5 nM ACC2, 20 μM ATP, 20 μM acetyl-CoA. The method, then: The detailed procedure is as follows. […] 10 μL ADP glo reagent was added. […] 20 μL kinase detection reagent was added.
Sequence of human (hACC2) (O00763 whole entry): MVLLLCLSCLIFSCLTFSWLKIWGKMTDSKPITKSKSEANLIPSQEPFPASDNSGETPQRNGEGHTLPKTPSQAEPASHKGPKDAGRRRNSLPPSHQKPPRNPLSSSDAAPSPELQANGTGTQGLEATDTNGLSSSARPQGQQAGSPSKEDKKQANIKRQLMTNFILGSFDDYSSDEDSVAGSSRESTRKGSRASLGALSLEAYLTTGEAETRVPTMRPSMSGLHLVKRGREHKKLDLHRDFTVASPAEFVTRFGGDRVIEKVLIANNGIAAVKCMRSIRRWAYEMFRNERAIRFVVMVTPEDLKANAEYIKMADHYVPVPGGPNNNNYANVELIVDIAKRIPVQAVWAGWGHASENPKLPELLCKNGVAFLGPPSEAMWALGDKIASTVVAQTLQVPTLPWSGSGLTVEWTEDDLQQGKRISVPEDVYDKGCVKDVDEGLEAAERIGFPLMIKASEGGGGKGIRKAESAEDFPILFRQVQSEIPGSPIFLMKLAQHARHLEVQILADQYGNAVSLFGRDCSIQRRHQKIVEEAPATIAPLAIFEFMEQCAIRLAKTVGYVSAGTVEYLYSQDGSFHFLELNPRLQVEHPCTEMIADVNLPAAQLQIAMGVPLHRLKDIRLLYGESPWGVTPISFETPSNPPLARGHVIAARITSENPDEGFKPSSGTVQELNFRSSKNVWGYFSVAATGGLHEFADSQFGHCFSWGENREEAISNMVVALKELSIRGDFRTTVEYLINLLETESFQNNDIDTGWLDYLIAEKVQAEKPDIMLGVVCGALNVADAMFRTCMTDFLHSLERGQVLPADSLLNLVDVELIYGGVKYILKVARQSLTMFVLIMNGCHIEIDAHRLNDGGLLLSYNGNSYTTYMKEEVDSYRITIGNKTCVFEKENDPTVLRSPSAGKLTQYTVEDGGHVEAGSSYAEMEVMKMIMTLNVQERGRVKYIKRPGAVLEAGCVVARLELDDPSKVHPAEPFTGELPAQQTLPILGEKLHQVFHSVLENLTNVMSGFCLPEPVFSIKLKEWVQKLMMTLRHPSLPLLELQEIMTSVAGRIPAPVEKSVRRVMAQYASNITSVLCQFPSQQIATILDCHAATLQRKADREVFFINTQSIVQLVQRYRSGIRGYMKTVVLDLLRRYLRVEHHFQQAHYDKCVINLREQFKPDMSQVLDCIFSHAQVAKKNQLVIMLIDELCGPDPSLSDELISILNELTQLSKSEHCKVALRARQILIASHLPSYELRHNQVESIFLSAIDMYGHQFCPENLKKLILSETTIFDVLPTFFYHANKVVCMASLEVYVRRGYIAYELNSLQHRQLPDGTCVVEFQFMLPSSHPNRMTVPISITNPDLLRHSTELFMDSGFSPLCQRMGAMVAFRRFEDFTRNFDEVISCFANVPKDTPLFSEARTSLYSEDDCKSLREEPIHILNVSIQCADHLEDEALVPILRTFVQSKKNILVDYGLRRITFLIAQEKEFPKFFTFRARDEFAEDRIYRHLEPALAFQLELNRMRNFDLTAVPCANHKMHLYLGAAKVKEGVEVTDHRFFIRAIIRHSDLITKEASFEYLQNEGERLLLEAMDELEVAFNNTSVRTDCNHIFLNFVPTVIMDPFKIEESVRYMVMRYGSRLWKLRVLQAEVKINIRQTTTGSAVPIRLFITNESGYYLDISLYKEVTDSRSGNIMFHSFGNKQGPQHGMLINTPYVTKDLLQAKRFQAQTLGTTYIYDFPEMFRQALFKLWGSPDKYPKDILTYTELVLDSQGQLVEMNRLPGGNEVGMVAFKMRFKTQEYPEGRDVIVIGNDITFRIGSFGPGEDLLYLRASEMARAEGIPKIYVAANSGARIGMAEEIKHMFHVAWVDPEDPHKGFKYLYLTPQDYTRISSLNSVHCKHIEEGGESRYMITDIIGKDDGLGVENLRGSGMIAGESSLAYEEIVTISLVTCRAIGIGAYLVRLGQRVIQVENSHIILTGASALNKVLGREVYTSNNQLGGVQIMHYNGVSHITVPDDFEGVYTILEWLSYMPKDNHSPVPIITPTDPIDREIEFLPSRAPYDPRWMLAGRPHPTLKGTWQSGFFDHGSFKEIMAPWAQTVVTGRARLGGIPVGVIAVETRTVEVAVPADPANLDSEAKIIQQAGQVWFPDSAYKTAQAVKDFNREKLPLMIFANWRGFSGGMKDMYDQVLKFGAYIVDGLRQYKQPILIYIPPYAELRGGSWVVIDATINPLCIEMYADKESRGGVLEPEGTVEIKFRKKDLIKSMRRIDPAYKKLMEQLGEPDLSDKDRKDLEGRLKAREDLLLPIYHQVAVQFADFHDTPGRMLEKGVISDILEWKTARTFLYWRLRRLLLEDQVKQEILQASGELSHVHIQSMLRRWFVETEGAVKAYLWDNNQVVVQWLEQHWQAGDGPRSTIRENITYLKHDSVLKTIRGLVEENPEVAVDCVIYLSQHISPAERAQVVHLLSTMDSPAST
A general note: ADP-Glo first removes unused ATP, then detects ADP through luciferase.

The test system of assay [8] is Botrtyis cinerea (Bc). As to the kind of experiment: Growth inhibition assay of fungal pathogens, Bc. In kind it is cell-based. To be noted: 48 h, growth inhibition at 48 hours vs 2% DMSO control. The gist of the method: as §1
In assay [9] the test system is Fusarium virguliforme (Fv). Kind of assay: Growth inhibition assay of fungal pathogens, Fv. In kind it is cell-based. To be noted: 48 h. In a few lines:
as §1

In assay [10] the test system is C. albicans. Kind of assay: Antifungal Activity Assay (broth microtiter MIC), C. albicans. To be noted: Candida albicans, ATCC90028, 48 h. In kind it is cell-based, Candida albicans. In a few lines:
as §2

The target in assay [11] is fungal (fACC2) (UniProt Q00955). To be noted: read-out: fACC2 (in vitro ACC2 Inhibition Assay, IC50); Table 2b, additional results; ADP-Glo, 5 nM ACC2, 20 μM ATP, 20 μM acetyl-CoA.
Sequence of fungal (fACC2) (Q00955 whole entry): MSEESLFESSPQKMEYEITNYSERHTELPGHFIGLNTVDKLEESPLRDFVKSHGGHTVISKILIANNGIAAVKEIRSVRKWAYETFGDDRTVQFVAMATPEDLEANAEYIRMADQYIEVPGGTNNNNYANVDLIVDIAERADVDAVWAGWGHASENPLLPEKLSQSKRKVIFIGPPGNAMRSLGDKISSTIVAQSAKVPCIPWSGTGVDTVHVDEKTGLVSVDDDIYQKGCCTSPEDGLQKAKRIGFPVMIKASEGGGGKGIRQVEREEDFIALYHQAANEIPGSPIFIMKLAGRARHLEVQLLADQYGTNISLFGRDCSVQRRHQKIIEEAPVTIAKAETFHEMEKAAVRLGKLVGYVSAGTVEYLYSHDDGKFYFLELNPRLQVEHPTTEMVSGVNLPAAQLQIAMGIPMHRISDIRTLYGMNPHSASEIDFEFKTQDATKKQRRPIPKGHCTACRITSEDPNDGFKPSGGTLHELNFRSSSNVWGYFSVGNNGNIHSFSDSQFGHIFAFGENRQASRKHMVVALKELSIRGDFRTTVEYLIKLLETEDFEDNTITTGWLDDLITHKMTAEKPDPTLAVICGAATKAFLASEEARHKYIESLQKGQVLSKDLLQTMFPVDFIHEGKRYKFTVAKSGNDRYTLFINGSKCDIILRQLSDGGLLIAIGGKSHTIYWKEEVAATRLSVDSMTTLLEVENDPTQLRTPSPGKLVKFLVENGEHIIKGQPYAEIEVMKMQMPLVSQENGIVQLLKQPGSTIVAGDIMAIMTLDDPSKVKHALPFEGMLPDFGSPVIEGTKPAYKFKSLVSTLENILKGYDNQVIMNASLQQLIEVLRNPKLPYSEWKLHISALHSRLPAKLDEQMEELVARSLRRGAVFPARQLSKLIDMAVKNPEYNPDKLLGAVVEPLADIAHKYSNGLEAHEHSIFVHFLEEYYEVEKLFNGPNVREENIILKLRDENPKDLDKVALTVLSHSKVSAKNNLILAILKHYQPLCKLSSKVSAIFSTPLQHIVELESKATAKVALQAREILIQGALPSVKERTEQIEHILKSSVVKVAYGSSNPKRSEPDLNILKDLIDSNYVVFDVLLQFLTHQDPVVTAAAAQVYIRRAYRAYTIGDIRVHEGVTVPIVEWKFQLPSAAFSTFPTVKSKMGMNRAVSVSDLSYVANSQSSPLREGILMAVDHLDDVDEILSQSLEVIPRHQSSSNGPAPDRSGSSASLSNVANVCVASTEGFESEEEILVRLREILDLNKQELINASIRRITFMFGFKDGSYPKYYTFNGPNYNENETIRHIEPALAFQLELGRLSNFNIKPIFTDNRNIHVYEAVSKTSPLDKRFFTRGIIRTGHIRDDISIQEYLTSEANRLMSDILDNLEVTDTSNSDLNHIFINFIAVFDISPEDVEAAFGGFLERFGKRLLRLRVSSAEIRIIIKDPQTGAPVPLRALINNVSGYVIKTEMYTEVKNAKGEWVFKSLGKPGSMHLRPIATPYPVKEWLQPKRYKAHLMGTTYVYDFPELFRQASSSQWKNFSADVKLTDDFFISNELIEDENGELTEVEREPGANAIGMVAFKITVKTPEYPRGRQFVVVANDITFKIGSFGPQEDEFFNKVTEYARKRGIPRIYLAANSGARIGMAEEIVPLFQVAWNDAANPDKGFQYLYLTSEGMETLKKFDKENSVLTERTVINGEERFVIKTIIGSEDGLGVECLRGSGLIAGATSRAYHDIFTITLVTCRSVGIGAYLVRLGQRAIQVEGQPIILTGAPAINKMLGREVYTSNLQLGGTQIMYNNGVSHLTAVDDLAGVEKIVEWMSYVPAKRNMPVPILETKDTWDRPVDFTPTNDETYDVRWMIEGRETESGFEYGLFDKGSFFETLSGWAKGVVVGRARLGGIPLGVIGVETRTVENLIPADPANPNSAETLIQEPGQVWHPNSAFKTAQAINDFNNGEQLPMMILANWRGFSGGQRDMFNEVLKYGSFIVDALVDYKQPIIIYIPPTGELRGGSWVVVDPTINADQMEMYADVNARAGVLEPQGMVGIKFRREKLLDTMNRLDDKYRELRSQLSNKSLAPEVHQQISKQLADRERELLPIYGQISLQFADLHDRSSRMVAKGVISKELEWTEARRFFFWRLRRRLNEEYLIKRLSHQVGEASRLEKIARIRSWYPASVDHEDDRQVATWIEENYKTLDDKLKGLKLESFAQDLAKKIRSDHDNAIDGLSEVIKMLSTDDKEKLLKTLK
Assay [12] deals with Fusarium moniliforme (Fm). Kind of assay: Growth inhibition assay of fungal pathogens, Fm. As to conditions: Fusarium verticillioides, 48 h, read-out: Concentration at 90% Inhibition Fm. The format is cell-based. In a few lines:
as §1

Assay [13] relates to C. parapsilosis. Kind of assay: Antifungal Activity Assay (broth microtiter MIC), C. parapsilosis. In kind it is cell-based, Candida parapsilosis. To be noted: Lodderomyces parapsilosis, ATCC22019, 48 h. In a few lines:
as §2

Setting [14] is: mycelial plugs, growth inhibition at 48 hours vs 2% DMSO control, read-out: Concentration at 90% Inhibition Rs.
Where [15] appears, read: Collectotrichum graminicola, read-out: Concentration at 90% Inhibition Cg.
The mark [16] stands for this setting: Table 3b (additional results), ATCC 6258, 3 replicates, MIC recorded at 48 h, read-out: MIC, C. krusei ATCC 6258.
Setting [17] is: growth inhibition at 48 hours vs 2% DMSO control, read-out: Concentration at 90% Inhibition Pc.
Where [18] appears, read: Diplodia maydis, read-out: Concentration at 90% Inhibition Dm.
Setting [19] is: Septoria tritici, read-out: Concentration at 90% Inhibition St.
The mark [20] stands for this setting: Botrtyis cinerea, read-out: Concentration at 90% Inhibition Bc.
Setting [21] is: growth inhibition at 48 hours vs 2% DMSO control, read-out: Concentration at 90% Inhibition Fv.
Setting [22] is: Table 3b (additional results), ATCC 90028, 3 replicates, MIC recorded at 48 h, read-out: MIC, C. albicans ATCC 90028.
Setting [23] is: Fusarium moniliforme, growth inhibition at 48 hours vs 2% DMSO control.
Setting [24] is: Table 3b (additional results), ATCC 22019, 3 replicates, MIC recorded at 48 h, read-out: MIC, C. parapsilosis ATCC 22019.

A word on the MIC: it is the least concentration at which growth counts as inhibited. A word on the pIC50: it is −log10 of the IC50, conventionally taken in molar units. In the case of `COc1ccc(C#N)cc1[C@H](Cn1c(=O)n(C(C)(C)C(=O)NC(C)C)c(=O)c2c(C)c(-n3nccn3)sc21)OCC(C)(C)C#N` [Compound I-223], the IC90 is 2 µg/mL (≈ 3.16 µM) in assay [1] (setting [14]); above 50 µg/mL in assay [2] (setting [15]); above 50 µg/mL in [4] (setting [17]); above 50 µg/mL in assay [5] (setting [18]); above 50 µg/mL in assay [6] (setting [19]); 10 µg/mL (≈ 15.8 µM) in assay [8] (setting [20]). For the same compound, the IC90 in assay [9] (setting [21]) stood at 10 µg/mL (≈ 15.8 µM); in [12] (setting [23]) it was 0.4 µg/mL (≈ 0.632 µM). The MIC was in the range of 0.25 to 1 µg/mL (≈ 0.395 to 1.58 µM) in [3] (setting [16]), 0.25 to 1 µg/mL (≈ 0.395 to 1.58 µM) in [10] (setting [22]) and 1.01 to 2 µg/mL (≈ 1.6 to 3.16 µM) in assay [13] (setting [24]). The pIC50 in [7] is 7.40 to 8.00; in [11] it was 8.30 to 9.00.
On to `COc1ccc(Br)cc1[C@H](Cn1c(=O)n(C(C)(C)C(=O)NC(C)C)c(=O)c2c(C)c(-n3nccn3)sc21)OCC(C)(C)C#N` [Compound I-224], for which the IC90 in [1] (setting [14]) was above 50 µg/mL; in [2] (setting [15]), 2 µg/mL (≈ 2.91 µM); in assay [4] (setting [17]), above 50 µg/mL; in [5] (setting [18]) it was 2 µg/mL (≈ 2.91 µM); in assay [6] (setting [19]) it was above 50 µg/mL; in assay [8] (setting [20]) it was 0.4 µg/mL (≈ 0.583 µM). The IC90 in assay [9] (setting [21]) came to 0.4 µg/mL (≈ 0.583 µM); in [12] (setting [23]) it was 0.08 µg/mL (≈ 0.117 µM). Also, the MIC in assay [3] (setting [16]) lay in the range of 0.25 to 1 µg/mL (≈ 0.364 to 1.46 µM); in assay [10] (setting [22]), 0.25 to 1 µg/mL (≈ 0.364 to 1.46 µM); in assay [13] (setting [24]), 1.01 to 2 µg/mL (≈ 1.47 to 2.91 µM). The pIC50 was 8.00 to 8.30 in [7] and 8.30 to 9.00 in [11].
For `COc1ccc(F)cc1[C@@](O)(CO)Cn1c(=O)n(C(C)(C)C(=O)NC(C)C)c(=O)c2c(C)c(-n3nccn3)sc21` [Compound I-225], the IC90 in assay [1] (read-out: Concentration at 90% Inhibition Rs, Rhizoctonia solani, mycelial plugs, growth inhibition at 48 hours vs 2% DMSO control) is 0.08 µg/mL (≈ 0.139 µM); in assay [2] (read-out: Concentration at 90% Inhibition Cg, Collectotrichum graminicola), 0.08 µg/mL (≈ 0.139 µM); in assay [4] (read-out: Concentration at 90% Inhibition Pc, Phytophthora capsici, growth inhibition at 48 hours vs 2% DMSO control), 2 µg/mL (≈ 3.48 µM); in assay [5] (read-out: Concentration at 90% Inhibition Dm, Diplodia maydis), 0.4 µg/mL (≈ 0.696 µM); in [6] (read-out: Concentration at 90% Inhibition St, Septoria tritici), above 50 µg/mL; in [8] (read-out: Concentration at 90% Inhibition Bc, Botrtyis cinerea) it was 0.4 µg/mL (≈ 0.696 µM). For the same compound, the IC90 in [9] (read-out: Concentration at 90% Inhibition Fv, Fusarium virguliforme, growth inhibition at 48 hours vs 2% DMSO control) came out at 0.4 µg/mL (≈ 0.696 µM); in [12], 0.08 µg/mL (≈ 0.139 µM). Also, the MIC in [3] (read-out: MIC, C. krusei ATCC 6258, Table 3b (additional results), 3 replicates, MIC recorded at 48 h) lay within 0.25 to 1 µg/mL (≈ 0.435 to 1.74 µM); in assay [10] (read-out: MIC, C. albicans ATCC 90028, Table 3b (additional results), 3 replicates, MIC recorded at 48 h) it was 0.25 to 1 µg/mL (≈ 0.435 to 1.74 µM); in [13] (read-out: MIC, C. parapsilosis ATCC 22019, Table 3b (additional results), 3 replicates, MIC recorded at 48 h), 1.01 to 2 µg/mL (≈ 1.76 to 3.48 µM). Moreover, the pIC50 in [7] was 8.00 to 8.30; in [11], 8.30 to 9.00.
Turning to `Cc1c(-n2nccn2)sc2c1c(=O)n(C(C)(C)C(=O)NC(C)C)c(=O)n2C[C@H](OCCO)c1cc(F)ccc1O` [Compound I-226], the IC90 is 2 µg/mL (≈ 3.48 µM) in assay [1] (setting [14]); 10 µg/mL (≈ 17.4 µM) in [2] (setting [15]); above 50 µg/mL in assay [4] (setting [17]); above 50 µg/mL in assay [5] (setting [18]); above 50 µg/mL in assay [6] (setting [19]); 10 µg/mL (≈ 17.4 µM) in [8] (setting [20]). Moreover, the IC90 worked out at 10 µg/mL (≈ 17.4 µM) in assay [9] (setting [21]) and 2 µg/mL (≈ 3.48 µM) in assay [12] (setting [23]). The MIC in assay [3] (setting [16]) is 1.01 to 2 µg/mL (≈ 1.76 to 3.48 µM); in assay [10] (setting [22]) it was 2.01 to 4 µg/mL (≈ 3.5 to 6.96 µM); in assay [13] (setting [24]), 2.01 to 4 µg/mL (≈ 3.5 to 6.96 µM). For the same compound, the pIC50 in assay [7] was 7.40 to 8.00; in assay [11] it was 9.00 to 9.52.
With `COc1ccc(Cl)cc1[C@H](Cn1c(=O)n(C(C)(C)C(=O)NC(C)C)c(=O)c2c(C)c(-n3nccn3)sc21)OCC(C)(C)C#N` [Compound I-227], the IC90 was 2 µg/mL (≈ 3.11 µM) in [1] (setting [14]); 2 µg/mL (≈ 3.11 µM) in assay [2] (setting [15]); above 50 µg/mL in assay [4] (setting [17]); 2 µg/mL (≈ 3.11 µM) in assay [5] (setting [18]); above 50 µg/mL in [6] (setting [19]); 2 µg/mL (≈ 3.11 µM) in assay [8] (setting [20]). Further, the IC90 in assay [9] (setting [21]) and in [12] (setting [23]) was 2 µg/mL (≈ 3.11 µM) throughout. Besides, the figures for the MIC in assay [3] (setting [16]), in assay [10] (setting [22]) and in [13] (setting [24]) were 0.25 to 1 µg/mL (≈ 0.389 to 1.56 µM), 0.25 to 1 µg/mL (≈ 0.389 to 1.56 µM) and 1.01 to 2 µg/mL (≈ 1.57 to 3.11 µM), respectively. Besides, the pIC50 in assay [7] is 7.40 to 8.00; in [11], 8.30 to 9.00.
